{"source": "paper PMC3848336", "about": "“Aurora Isoform Selectivity: Design and Synthesis of Imidazo[4,5-b]pyridine Derivatives as Highly Selective Inhibitors of Aurora-A Kinase in Cells” (Journal of Medicinal Chemistry, 2013)", "assay_in_all_cases": "Kinase selectivity profiling", "format_in_all_cases": "biochemical", "key": {"IR": {"target": "IR (Homo sapiens, UniProt P06213)", "settings": "110-kinase panel", "from_the_text": "(§1) Compound 28c was profiled against a panel of 110 kinases at the International Centre for Protein Kinase Profiling, Division of Signal Transduction Therapy, University of Dundee. Compound 40f was profiled against a panel of 50 kinases (MRC-PPU Express Screen) also at the International Centre for Protein Kinase Profiling."}, "CLK2": {"target": "CLK2 (Homo sapiens, UniProt P49760)", "settings": "110-kinase panel", "from_the_text": "as §1"}, "MLK1": {"target": "MLK1 (Homo sapiens, UniProt P80192)", "settings": "110-kinase panel", "from_the_text": "as §1"}, "IKKe": {"target": "IKKe (Homo sapiens, UniProt Q14164)", "settings": "110-kinase panel", "from_the_text": "as §1"}, "EPH-A4": {"target": "EPH-A4 (Homo sapiens, UniProt P54764)", "sequence (P54764 20-986)": "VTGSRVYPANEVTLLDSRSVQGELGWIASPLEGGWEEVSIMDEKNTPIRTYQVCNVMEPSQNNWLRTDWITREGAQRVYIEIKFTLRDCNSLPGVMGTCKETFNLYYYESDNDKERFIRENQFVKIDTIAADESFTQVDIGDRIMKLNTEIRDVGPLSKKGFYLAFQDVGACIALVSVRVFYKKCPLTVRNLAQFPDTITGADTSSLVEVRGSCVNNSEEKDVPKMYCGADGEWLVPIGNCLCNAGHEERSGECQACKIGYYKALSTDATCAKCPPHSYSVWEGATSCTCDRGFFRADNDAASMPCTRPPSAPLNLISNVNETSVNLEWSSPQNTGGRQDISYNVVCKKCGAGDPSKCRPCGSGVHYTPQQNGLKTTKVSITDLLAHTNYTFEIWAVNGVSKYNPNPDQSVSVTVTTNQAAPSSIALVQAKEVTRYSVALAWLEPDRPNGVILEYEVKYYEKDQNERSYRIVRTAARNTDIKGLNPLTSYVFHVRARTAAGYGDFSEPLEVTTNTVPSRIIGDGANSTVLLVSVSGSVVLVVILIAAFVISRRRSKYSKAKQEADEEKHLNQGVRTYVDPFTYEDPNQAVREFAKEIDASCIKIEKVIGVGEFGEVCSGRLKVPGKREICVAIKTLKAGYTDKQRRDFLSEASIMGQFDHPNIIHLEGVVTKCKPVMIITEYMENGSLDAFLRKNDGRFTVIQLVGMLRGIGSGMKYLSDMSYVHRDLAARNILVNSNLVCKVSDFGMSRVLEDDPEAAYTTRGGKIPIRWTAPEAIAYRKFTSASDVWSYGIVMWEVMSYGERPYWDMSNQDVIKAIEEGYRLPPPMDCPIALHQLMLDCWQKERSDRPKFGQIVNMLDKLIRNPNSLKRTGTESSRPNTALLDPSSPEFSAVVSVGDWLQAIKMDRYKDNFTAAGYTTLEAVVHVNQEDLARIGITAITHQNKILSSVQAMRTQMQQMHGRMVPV", "settings": "110-kinase panel, read-out: % activity remaining, EPH2A4", "from_the_text": "as §1"}, "HIPK1": {"target": "HIPK1 (Homo sapiens, UniProt Q86Z02)", "settings": "110-kinase panel", "from_the_text": "as §1"}, "BRSK2": {"target": "BRSK2 (Homo sapiens, UniProt Q8IWQ3)", "settings": "110-kinase panel", "from_the_text": "as §1"}, "PIM3": {"target": "PIM3 (Homo sapiens, UniProt Q86V86)", "settings": "110-kinase panel", "from_the_text": "as §1"}, "MARK2": {"target": "MARK2 (Homo sapiens, UniProt Q7KZI7)", "sequence (Q7KZI7 whole entry)": "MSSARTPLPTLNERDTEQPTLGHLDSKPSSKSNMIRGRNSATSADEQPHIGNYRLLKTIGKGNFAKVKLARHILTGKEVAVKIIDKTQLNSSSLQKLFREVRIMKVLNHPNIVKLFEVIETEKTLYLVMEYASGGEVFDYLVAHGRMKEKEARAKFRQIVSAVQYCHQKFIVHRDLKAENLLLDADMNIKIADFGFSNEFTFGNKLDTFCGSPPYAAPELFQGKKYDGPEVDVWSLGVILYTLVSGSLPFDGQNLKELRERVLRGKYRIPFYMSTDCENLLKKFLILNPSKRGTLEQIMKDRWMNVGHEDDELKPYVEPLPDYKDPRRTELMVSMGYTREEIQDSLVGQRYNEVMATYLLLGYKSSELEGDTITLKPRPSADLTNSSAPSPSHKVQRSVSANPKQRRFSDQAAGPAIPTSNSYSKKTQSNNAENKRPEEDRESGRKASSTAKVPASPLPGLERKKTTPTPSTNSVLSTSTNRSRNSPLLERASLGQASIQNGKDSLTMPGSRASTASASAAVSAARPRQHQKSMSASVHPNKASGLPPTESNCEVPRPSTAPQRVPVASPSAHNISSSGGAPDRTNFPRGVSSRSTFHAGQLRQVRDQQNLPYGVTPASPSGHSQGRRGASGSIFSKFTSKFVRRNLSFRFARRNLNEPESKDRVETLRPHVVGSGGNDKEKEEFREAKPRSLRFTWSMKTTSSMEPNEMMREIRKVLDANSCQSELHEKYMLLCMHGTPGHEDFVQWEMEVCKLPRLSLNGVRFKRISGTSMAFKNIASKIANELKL", "settings": "110-kinase panel", "from_the_text": "as §1"}, "JNK2": {"target": "JNK2 (Homo sapiens, UniProt P45984)", "settings": "110-kinase panel", "from_the_text": "as §1"}, "PKBb": {"target": "PKBb (Homo sapiens, UniProt P31751)", "settings": "110-kinase panel", "from_the_text": "as §1"}, "DYRK3": {"target": "DYRK3 (Homo sapiens, UniProt O43781)", "settings": "110-kinase panel", "from_the_text": "as §1"}, "MNK1": {"target": "MNK1 (Homo sapiens, UniProt Q9BUB5)", "settings": "110-kinase panel", "from_the_text": "as §1"}, "IRR": {"target": "IRR (Homo sapiens, UniProt P14616)", "sequence (P14616 27-1297, species assumed)": "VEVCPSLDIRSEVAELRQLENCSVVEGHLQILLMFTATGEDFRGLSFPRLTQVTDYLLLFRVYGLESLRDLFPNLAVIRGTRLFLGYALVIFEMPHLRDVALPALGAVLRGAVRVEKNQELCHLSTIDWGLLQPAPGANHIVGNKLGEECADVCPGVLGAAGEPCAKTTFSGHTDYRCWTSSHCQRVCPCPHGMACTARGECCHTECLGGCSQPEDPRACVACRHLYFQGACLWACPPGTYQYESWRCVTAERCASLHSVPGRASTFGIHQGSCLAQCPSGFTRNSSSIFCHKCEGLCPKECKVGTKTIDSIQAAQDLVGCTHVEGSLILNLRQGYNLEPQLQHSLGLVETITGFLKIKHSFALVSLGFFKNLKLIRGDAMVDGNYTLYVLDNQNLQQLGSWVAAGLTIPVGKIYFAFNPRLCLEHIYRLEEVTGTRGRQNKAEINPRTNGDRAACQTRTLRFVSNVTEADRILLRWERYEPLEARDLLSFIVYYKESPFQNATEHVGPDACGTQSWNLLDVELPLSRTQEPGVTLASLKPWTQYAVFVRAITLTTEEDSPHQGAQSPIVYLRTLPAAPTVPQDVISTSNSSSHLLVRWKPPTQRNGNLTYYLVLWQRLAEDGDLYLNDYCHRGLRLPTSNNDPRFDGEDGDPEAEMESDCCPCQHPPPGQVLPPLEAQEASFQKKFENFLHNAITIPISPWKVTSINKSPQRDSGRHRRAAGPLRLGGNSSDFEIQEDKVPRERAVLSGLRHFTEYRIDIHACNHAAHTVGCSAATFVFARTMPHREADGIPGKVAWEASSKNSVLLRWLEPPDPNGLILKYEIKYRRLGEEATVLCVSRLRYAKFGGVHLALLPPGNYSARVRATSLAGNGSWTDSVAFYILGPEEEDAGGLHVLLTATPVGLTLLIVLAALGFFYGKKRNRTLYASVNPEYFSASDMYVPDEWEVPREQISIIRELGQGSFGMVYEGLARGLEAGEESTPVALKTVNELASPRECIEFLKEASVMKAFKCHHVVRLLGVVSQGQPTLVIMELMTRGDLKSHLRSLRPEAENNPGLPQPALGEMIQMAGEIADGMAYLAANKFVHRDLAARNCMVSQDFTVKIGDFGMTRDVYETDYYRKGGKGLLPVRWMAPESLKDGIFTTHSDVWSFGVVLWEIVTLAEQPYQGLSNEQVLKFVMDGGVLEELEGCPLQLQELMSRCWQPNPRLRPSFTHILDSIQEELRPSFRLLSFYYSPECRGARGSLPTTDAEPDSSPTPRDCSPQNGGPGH", "settings": "110-kinase panel", "from_the_text": "as §1"}, "AMPK": {"system": "AMPK", "settings": "1 µM; 110-kinase panel", "from_the_text": "as §1"}, "EPH-B4": {"target": "EPH-B4 (Homo sapiens, UniProt P54760)", "settings": "110-kinase panel, read-out: % activity remaining, EPH2B4", "from_the_text": "as §1"}, "MEKK1": {"target": "MEKK1 (Homo sapiens, UniProt Q13233)", "sequence (Q13233 whole entry)": "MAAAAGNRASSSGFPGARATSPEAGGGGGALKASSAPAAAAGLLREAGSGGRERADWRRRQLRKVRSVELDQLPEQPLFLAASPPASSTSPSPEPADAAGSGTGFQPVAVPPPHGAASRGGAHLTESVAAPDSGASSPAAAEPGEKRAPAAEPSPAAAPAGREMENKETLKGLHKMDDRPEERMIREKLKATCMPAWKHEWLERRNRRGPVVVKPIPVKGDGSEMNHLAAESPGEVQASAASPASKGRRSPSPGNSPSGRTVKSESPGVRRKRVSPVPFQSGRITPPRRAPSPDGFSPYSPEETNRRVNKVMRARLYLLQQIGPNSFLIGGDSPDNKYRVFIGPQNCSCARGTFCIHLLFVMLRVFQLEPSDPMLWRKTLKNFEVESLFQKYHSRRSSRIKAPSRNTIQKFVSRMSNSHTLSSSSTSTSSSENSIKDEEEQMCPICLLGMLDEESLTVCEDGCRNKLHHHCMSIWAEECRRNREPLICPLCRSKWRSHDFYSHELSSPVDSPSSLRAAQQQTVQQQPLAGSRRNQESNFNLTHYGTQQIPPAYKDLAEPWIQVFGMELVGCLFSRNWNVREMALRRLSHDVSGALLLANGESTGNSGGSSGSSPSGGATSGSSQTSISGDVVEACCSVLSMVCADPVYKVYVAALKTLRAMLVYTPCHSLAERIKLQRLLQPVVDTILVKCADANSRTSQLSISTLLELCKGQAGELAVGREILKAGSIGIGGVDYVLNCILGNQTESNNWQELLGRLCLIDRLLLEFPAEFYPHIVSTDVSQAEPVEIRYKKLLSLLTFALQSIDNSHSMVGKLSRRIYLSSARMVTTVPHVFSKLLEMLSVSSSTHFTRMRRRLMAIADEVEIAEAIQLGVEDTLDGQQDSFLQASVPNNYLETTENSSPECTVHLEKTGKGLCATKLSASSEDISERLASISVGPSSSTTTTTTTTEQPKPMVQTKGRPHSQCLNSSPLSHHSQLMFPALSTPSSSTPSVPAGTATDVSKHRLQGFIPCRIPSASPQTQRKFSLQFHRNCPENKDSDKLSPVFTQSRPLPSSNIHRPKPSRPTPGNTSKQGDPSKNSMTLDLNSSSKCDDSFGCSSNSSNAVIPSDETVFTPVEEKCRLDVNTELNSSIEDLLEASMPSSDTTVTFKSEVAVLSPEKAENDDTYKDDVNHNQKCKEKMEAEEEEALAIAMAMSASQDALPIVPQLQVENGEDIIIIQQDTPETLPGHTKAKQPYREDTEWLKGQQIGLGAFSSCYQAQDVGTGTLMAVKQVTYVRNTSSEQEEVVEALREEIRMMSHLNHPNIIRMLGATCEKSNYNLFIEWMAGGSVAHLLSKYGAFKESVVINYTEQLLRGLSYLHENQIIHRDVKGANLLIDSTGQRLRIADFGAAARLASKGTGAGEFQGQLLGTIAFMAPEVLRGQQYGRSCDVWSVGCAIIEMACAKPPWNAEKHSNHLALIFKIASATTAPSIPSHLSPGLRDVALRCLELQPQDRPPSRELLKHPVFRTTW", "settings": "110-kinase panel", "from_the_text": "as §1"}, "EPH-B2": {"target": "EPH-B2 (Homo sapiens, UniProt P29323)", "settings": "110-kinase panel, read-out: % activity remaining, EPH2B2", "from_the_text": "as §1"}, "PAK5": {"target": "PAK5 (Homo sapiens, UniProt Q9P286)", "settings": "110-kinase panel", "from_the_text": "as §1"}, "MINK1": {"target": "MINK1 (Homo sapiens, UniProt Q8N4C8)", "settings": "110-kinase panel", "from_the_text": "as §1"}, "PAK6": {"target": "PAK6 (Homo sapiens, UniProt Q9NQU5)", "settings": "110-kinase panel", "from_the_text": "as §1"}, "TAO1": {"target": "TAO1 (Homo sapiens, UniProt Q7L7X3)", "settings": "110-kinase panel", "from_the_text": "as §1"}, "CDK2-Cyclin A": {"target": "CDK2-Cyclin A (Homo sapiens, UniProt P24941)", "settings": "110-kinase panel, read-out: % activity remaining, CDK22Cyclin A", "from_the_text": "as §1"}, "PRAK": {"target": "PRAK (Homo sapiens, UniProt Q8IW41)", "settings": "110-kinase panel", "from_the_text": "as §1"}, "MST4": {"target": "MST4 (Homo sapiens, UniProt Q9P289)", "settings": "110-kinase panel", "from_the_text": "as §1"}, "PKCz": {"target": "PKCz (Homo sapiens, UniProt Q05513)", "settings": "110-kinase panel", "from_the_text": "as §1"}, "CK1": {"target": "CK1 (Homo sapiens, UniProt P48730)", "settings": "110-kinase panel", "from_the_text": "as §1"}, "p38d MAPK": {"target": "p38d MAPK (Homo sapiens, UniProt O15264)", "settings": "110-kinase panel", "from_the_text": "as §1"}, "p38g MAPK": {"target": "p38g MAPK (Homo sapiens, UniProt P53778)", "settings": "110-kinase panel", "from_the_text": "as §1"}, "CSK": {"target": "CSK (Homo sapiens, UniProt P41240)", "sequence (P41240 whole entry)": "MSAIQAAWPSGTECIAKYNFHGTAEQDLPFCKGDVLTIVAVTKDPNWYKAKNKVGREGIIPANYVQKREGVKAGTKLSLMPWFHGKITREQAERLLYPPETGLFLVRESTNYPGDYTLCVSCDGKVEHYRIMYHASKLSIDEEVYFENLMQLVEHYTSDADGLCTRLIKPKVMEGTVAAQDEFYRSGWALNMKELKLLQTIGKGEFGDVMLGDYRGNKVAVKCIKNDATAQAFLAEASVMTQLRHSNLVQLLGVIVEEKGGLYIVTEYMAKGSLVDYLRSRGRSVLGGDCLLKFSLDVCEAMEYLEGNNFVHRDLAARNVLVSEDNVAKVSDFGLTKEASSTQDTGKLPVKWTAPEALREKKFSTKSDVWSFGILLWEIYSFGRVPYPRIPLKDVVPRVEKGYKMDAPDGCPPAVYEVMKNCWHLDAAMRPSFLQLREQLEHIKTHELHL", "settings": "110-kinase panel", "from_the_text": "as §1"}, "DYRK2": {"target": "DYRK2 (Homo sapiens, UniProt Q92630)", "settings": "110-kinase panel", "from_the_text": "as §1"}, "p38b MAPK": {"target": "p38b MAPK (Homo sapiens, UniProt Q15759)", "settings": "110-kinase panel", "from_the_text": "as §1"}, "RSK2": {"target": "RSK2 (Homo sapiens, UniProt P51812)", "settings": "110-kinase panel", "from_the_text": "as §1"}, "ERK2": {"target": "ERK2 (Homo sapiens, UniProt P28482)", "settings": "110-kinase panel", "from_the_text": "as §1"}, "NEK2a": {"target": "NEK2a (Homo sapiens, UniProt P51955)", "settings": "110-kinase panel", "from_the_text": "as §1"}, "IKKb": {"target": "IKKb (Homo sapiens, UniProt O14920)", "settings": "110-kinase panel", "from_the_text": "as §1"}, "MARK1": {"target": "MARK1 (Homo sapiens, UniProt Q9P0L2)", "settings": "110-kinase panel", "from_the_text": "as §1"}, "PAK2": {"target": "PAK2 (Homo sapiens, UniProt Q13177)", "settings": "110-kinase panel", "from_the_text": "as §1"}, "MKK6": {"target": "MKK6 (Homo sapiens, UniProt P52564)", "settings": "110-kinase panel", "from_the_text": "as §1"}, "HIPK3": {"target": "HIPK3 (Homo sapiens, UniProt Q9H422)", "settings": "110-kinase panel", "from_the_text": "as §1"}, "MELK": {"target": "MELK (Homo sapiens, UniProt Q14680)", "settings": "110-kinase panel", "from_the_text": "as §1"}, "CK1δ": {"target": "CK1δ (Homo sapiens, UniProt P48730)", "settings": "50-kinase panel (MRC-PPU Express Screen)", "from_the_text": "as §1"}}}
{"smiles": "Cc1nn(C)cc1-c1nc2c(Oc3ccc(C(=O)Nc4ccccc4)cc3)c(Cl)cnc2[nH]1", "note": "[compound 28c, 4-((6-Chloro-2-(1,3-dimethyl-1H-pyrazol-4-yl)-3H-imidazo[4,5-b]pyridin-7-yl)oxy)-N-phenylbenzamide]", "values": [{"measurement": "remaining activity at 1 µM", "setting": "IR", "result": 124, "unit": "%"}, {"measurement": "remaining activity at 1 µM", "setting": "CLK2", "result": 84, "unit": "%"}, {"measurement": "remaining activity at 1 µM", "setting": "MLK1", "result": 31, "unit": "%"}, {"measurement": "remaining activity at 1 µM", "setting": "IKKe", "result": 101, "unit": "%"}, {"measurement": "remaining activity at 1 µM", "setting": "EPH-A4", "result": 112, "unit": "%"}, {"measurement": "remaining activity at 1 µM", "setting": "HIPK1", "result": 102, "unit": "%"}, {"measurement": "remaining activity at 1 µM", "setting": "BRSK2", "result": 111, "unit": "%"}, {"measurement": "remaining activity at 1 µM", "setting": "PIM3", "result": 102, "unit": "%"}, {"measurement": "remaining activity at 1 µM", "setting": "MARK2", "result": 104, "unit": "%"}, {"measurement": "remaining activity at 1 µM", "setting": "JNK2", "result": 90, "unit": "%"}, {"measurement": "remaining activity at 1 µM", "setting": "PKBb", "result": 78, "unit": "%"}, {"measurement": "remaining activity at 1 µM", "setting": "DYRK3", "result": 102, "unit": "%"}, {"measurement": "remaining activity at 1 µM", "setting": "MNK1", "result": 126, "unit": "%"}, {"measurement": "remaining activity at 1 µM", "setting": "IRR", "result": 108, "unit": "%"}, {"measurement": "% activity remaining, AMPK", "setting": "AMPK", "result": 83, "unit": "%"}, {"measurement": "remaining activity at 1 µM", "setting": "EPH-B4", "result": 102, "unit": "%"}, {"measurement": "remaining activity at 1 µM", "setting": "MEKK1", "result": 93, "unit": "%"}, {"measurement": "remaining activity at 1 µM", "setting": "EPH-B2", "result": 91, "unit": "%"}, {"measurement": "remaining activity at 1 µM", "setting": "PAK5", "result": 56, "unit": "%"}, {"measurement": "remaining activity at 1 µM", "setting": "MINK1", "result": 75, "unit": "%"}, {"measurement": "remaining activity at 1 µM", "setting": "PAK6", "result": 101, "unit": "%"}, {"measurement": "remaining activity at 1 µM", "setting": "TAO1", "result": 100, "unit": "%"}, {"measurement": "remaining activity at 1 µM", "setting": "CDK2-Cyclin A", "result": 58, "unit": "%"}, {"measurement": "remaining activity at 1 µM", "setting": "PRAK", "result": 103, "unit": "%"}, {"measurement": "remaining activity at 1 µM", "setting": "MST4", "result": 115, "unit": "%"}, {"measurement": "remaining activity at 1 µM", "setting": "PKCz", "result": 100, "unit": "%"}, {"measurement": "remaining activity at 1 µM", "setting": "CK1", "result": 86, "unit": "%"}, {"measurement": "remaining activity at 1 µM", "setting": "p38d MAPK", "result": 102, "unit": "%"}, {"measurement": "remaining activity at 1 µM", "setting": "p38g MAPK", "result": 96, "unit": "%"}, {"measurement": "remaining activity at 1 µM", "setting": "CSK", "result": 76, "unit": "%"}, {"measurement": "remaining activity at 1 µM", "setting": "DYRK2", "result": 87, "unit": "%"}, {"measurement": "remaining activity at 1 µM", "setting": "p38b MAPK", "result": 89, "unit": "%"}, {"measurement": "remaining activity at 1 µM", "setting": "RSK2", "result": 94, "unit": "%"}, {"measurement": "remaining activity at 1 µM", "setting": "ERK2", "result": 85, "unit": "%"}, {"measurement": "remaining activity at 1 µM", "setting": "NEK2a", "result": 96, "unit": "%"}, {"measurement": "remaining activity at 1 µM", "setting": "IKKb", "result": 99, "unit": "%"}, {"measurement": "remaining activity at 1 µM", "setting": "MARK1", "result": 103, "unit": "%"}, {"measurement": "remaining activity at 1 µM", "setting": "PAK2", "result": 102, "unit": "%"}, {"measurement": "remaining activity at 1 µM", "setting": "MKK6", "result": 95, "unit": "%"}, {"measurement": "remaining activity at 1 µM", "setting": "HIPK3", "result": 96, "unit": "%"}, {"measurement": "remaining activity at 1 µM", "setting": "MELK", "result": 79, "unit": "%"}]}
{"smiles": "Cc1nn(C)cc1-c1nc2c(Oc3ccc(C(=O)NC4CCC4)cc3)c(Cl)cnc2[nH]1", "note": "[compound 40f, 4-((6-Chloro-2-(1,3-dimethyl-1H-pyrazol-4-yl)-3H-imidazo[4,5-b]pyridin-7-yl)oxy)-N-cyclobutylbenzamide]", "values": [{"measurement": "remaining activity at 1 µM", "setting": "CK1δ", "result": 87, "unit": "%"}]}
